Measurements taken from US20100048604A1, “Ligands for Aldoketoreductases” (priority 2004, published 2010).

What was measured:
AKR1C3 = biological target: T1, AKR1C3 (Homo sapiens, UniProt P42330); test: Determination of kinetic parameters for AKR1C3 (fluorogenic substrate 5); assay type: biochemical
T1 construct: gift of Professor Trevor Penning (University of Pennsylvania School of Medicine)
T1 sequence (P42330 1-323): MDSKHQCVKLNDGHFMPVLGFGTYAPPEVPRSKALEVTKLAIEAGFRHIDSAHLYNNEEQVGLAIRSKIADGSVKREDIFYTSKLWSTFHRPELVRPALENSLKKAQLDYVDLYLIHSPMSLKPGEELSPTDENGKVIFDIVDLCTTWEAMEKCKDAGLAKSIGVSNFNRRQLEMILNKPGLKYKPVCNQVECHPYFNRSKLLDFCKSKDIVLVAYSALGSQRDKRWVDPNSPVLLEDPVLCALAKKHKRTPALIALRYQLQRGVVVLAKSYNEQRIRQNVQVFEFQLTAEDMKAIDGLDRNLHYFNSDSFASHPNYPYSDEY
Method: Whether the activity of human enzymes may be imaged by probe 5 was investigated. Type 2 isozyme of 3α-HSD (AKR 1C3) was selected for this study owing to its important physiological role.
Fluorogenic substrate 5 reduction was monitored on a Hitachi F-4500 fluorimeter in Starna quartz cuvettes fluorometrically in 1 mL systems containing 100 mM potassium phosphate pH 6.0 containing excess of NADPH cofactor (250 μM) and various amounts of the substrate (0.1953-50 μM) dissolved in 4% acetonitrile. […] Cuvettes were mixed thoroughly after addition of cofactor, cosolvent, and substrate. Reactions were initiated by the addition of 4 μL of dilute AKR1C3 (115 μg/mL) and were corrected for nonenzymatic rates. All reactions were followed by monitoring the increase in fluorescence of the product alcohol for 5 minutes at λem 510 nm with λex 440 nm (Excitation and emission band pass slits both at 2.5 nm, lamp 900 V) at 37° C. The initial velocities, expressed in units of nanomoles per minute, were calculated according to previously published procedures (Wierzchowski, J.; Dafeldecker, W. P.; Holmquist, B.; Vallee, B. L. Anal. Biochem. 1989, 178, 57-62): initial rate=[nst×(Ft−F0)/(Fst)]/t where Ft and F0 represent the fluorescence at time t and 0, nst is the nanomoles of the product standard, and Fst is the fluorescence resulting from nst of product. Kinetic constants were approximated using the GraFit (Erithacus Software, Surrey, UK) non-linear regression analysis program to fit the untransformed data to a hyperbolic function as originally described (Wilkinson, G. N. Biochem. J. 1961, 80, 324-332), yielding estimated values of kcat, Km, and their associated standard errors.

AKR1C1-AKR1C4 = test: Substrate tolerance and selectivity across the four human AKR1C isozymes; assay type: biochemical; details: AKR1C1-AKR1C4, purified enzymes, NADPH
Source text: AKR1C2 and AKR1C3 Selective Probes: Probes (5a-5i) were examined as substrates for the four purified human HSD isozymes (AKR1C1-AKR1C4) under standard assay conditions [catalytic quantities of enzyme, an excess of cofactor (NADPH)]. The initial reaction rates were used to derive standard kinetic parameters (kcat and Km, Materials and Methods).
Substrate tolerance of AKR1Cs: Isozyme Activity with 5a-5i: Activity of the second generation of fluorogenic substrates with the AKR1C isozymes was determined as follows. To a STARNA semi-micro fluorimeter cell (with 4 polished windows) was added 100 μL of 1 M potassium phosphate buffer (pH 6), 840 μL doubly deionized water, and 20 μL of 12.5 mM NADPH. After mixing the aqueous components thoroughly, 20 μL of acetonitrile was added as a cosolvent and mixed well. 20 μL of 2.5 mM second generation fluorogenic ketone in acetonitrile (5a-5i) was then added and mixed. 4 μL of undiluted AKR1C (provided generously by the Penning lab at concentrations of 2.5 mg/mL) were then added to the cuvette for a total of 10 μg purified enzyme in the 1 mL assay volume. Fluorescence arising from the respective alcohol reduction product was then monitored over the course of 5-10 minutes.
Binding constant and catalytic rates (Km and kcat) of the second generation of fluorogenic substrates was determined as follows. To a STARNA semi-micro fluorometer cell (with 4 polished windows) was added 100 μL of 1 M potassium phosphate buffer (pH 6), 840 μL doubly deionized water, and 20 AL of 12.5 mM NADPH. After mixing the aqueous components thoroughly, 20 μL of acetonitrile was added as a cosolvent and mixed well. […] Fluorescence arising from the respective alcohol reduction product was then monitored over the course of 3 minutes (Excitation and emission band pass slits both at 4 nm, lamp 700 V, λexc 410 nm, λem 510). The rate of product formation, expressed in units of nanomoles per minute, were calculated according to previously published procedures (Wierzchowski, J.; Dafeldecker, W. P.; Holmquist, B.; Vallee, B. L. Anal. Biochem. 1989, 178, 57-62): […]

[1] = 100 mM potassium phosphate pH 6.0, 250 μM NADPH, 37° C.
[2] = Type 2 isozyme of 3α-HSD (AKR 1C3)

For CC(=O)c1cc(=O)oc2c3c4c(cc12)CCCN4CCC3 [compound 5, 8-Acetyl-2,3,5,6-tetrahydro-1H,4H-11-oxa-3a-aza-benzo[de]anthracen-10-one], the Kcat (AKR1C3; [1]) was 0.1374 s⁻¹, the Km (AKR1C3; [1]) was 2.46 µM and the Spec. activity (AKR1C3; [1]) was 0.226 µmol/min/mg. The Vmax (AKR1C3; [1]) was 0.1039 nmol/min, the Kcat (AKR1C3; [2]) was 0.137 s⁻¹ and the Km (AKR1C3; [2]) was 2.5 µM. The “acceptance as substrate by the four human isozymes” value (AKR1C1-AKR1C4) was “all four human isozymes catalyzed the reduction”.
